In patent US11713338B2, “Cyclic peptides multimers targeting α-4-β-7 integrin” (priority 2016, dated 2023) one finds IC50 data, which are given here for 6 molecules.

The first experiment deals with T1, integrin α4β7 (RPMI8866 human cells adhering to MAdCAM-1) (Homo sapiens, UniProt P13612+P26010).
T1 construct: RMP18866 cells, which express integrin α4β7; host or cells: RPMI8866
T1 sequence (P13612 34-1032): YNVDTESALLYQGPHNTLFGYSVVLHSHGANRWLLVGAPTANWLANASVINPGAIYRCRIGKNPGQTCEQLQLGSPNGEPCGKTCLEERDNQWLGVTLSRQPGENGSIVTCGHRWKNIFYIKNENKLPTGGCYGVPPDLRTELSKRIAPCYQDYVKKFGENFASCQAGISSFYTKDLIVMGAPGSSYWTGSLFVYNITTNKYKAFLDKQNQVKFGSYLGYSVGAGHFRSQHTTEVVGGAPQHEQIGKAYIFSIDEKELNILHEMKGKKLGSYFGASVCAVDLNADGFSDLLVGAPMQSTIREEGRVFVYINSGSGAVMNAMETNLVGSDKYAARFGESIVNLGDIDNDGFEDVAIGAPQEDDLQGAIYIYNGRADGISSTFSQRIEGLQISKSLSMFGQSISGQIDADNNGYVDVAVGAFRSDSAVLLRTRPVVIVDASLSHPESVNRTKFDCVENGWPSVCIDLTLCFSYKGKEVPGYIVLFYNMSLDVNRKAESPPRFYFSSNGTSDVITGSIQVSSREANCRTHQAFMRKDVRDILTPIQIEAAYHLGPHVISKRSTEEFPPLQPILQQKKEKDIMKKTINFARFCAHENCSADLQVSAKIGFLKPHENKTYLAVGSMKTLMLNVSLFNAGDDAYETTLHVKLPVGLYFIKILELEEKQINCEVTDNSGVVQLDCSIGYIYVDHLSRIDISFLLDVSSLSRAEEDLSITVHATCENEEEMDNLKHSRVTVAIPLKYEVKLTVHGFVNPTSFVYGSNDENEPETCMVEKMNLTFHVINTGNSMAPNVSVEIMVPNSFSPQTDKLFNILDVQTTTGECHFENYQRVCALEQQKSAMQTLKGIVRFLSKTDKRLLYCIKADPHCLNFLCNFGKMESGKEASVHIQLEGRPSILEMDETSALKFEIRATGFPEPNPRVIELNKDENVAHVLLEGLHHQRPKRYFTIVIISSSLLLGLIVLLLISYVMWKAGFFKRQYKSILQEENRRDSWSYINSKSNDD
T1 sequence (P26010 20-798): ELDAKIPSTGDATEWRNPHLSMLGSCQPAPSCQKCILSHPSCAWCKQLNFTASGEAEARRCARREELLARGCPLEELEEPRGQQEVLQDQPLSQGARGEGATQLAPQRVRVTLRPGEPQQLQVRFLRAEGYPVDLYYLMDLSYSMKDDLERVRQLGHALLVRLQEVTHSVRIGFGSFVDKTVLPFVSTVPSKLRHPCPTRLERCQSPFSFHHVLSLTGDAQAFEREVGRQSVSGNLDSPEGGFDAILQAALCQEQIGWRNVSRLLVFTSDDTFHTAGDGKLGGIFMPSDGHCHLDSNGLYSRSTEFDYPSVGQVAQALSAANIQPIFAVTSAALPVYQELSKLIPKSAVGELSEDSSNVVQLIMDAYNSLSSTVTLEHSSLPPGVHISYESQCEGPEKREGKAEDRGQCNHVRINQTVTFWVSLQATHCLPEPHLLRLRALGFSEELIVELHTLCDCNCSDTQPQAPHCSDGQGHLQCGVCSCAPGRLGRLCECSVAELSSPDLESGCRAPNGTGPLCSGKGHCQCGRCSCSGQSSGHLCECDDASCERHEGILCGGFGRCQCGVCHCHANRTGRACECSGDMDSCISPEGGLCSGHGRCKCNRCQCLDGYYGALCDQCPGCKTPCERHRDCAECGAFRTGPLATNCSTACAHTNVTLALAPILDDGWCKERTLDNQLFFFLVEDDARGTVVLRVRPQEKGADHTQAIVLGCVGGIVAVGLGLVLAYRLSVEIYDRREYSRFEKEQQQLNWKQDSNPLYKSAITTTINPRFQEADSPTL
Nature of the experiment: Integrin α4β7-MAdCAM cell adhesion assay (RPMI8866 cells). In kind it is cell-based. To be noted: RPMI8866 cells adhering to MAdCAM; read-out: RPMI8866 Adhesion α4β7/MAdCAM IC50. In short, it runs like this:
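RPMI8866 cells were loaded with […] calcein in PBS for 30 min at 37° C. After plate washes with PBS, fluorescence of adherent cells was read, and no-cell control wells were subtracted from each test well to build the dose response.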
With `CC(C)C[C@@H]1NC(=O)c2ccc(-c3ccc(N4CCN(C(=O)C5(C(=O)N6CCN(c7ccc(-c8ccc9cc8CNC(=O)[C@@H]8CCCN8[C@H](C(=O)NC(C)(C)C)[C@H](C)NC(=O)[C@H]([C@@H](C)O)NC(=O)[C@H](CC(=O)O)NC(=O)[C@H](CC(C)C)NC9=O)cc7)CC6)Cc6ccccc6C5)CC4)cc3)c(c2)CNC(=O)[C@@H]2CCCN2[C@H](C(=O)NC(C)(C)C)[C@H](C)NC(=O)[C@H]([C@@H](C)O)NC(=O)[C@H](CC(=O)O)NC1=O` [Compound 461], the IC50 turned out to be 39 nM. As for `CC(C)C[C@@H]1NC(=O)c2ccc(-c3ccc(N4CCN(C(=O)c5ccccc5-c5ccccc5C(=O)N5CCN(c6ccc(-c7ccc8cc7CNC(=O)[C@@H]7CCCN7[C@H](C(=O)NC(C)(C)C)[C@H](C)NC(=O)[C@H]([C@@H](C)O)NC(=O)[C@H](CC(=O)O)NC(=O)[C@H](CC(C)C)NC8=O)cc6)CC5)CC4)cc3)c(c2)CNC(=O)[C@@H]2CCCN2[C@H](C(=O)NC(C)(C)C)[C@H](C)NC(=O)[C@H]([C@@H](C)O)NC(=O)[C@H](CC(=O)O)NC1=O` [Compound 517], the IC50 is 10 nM.

`CC(C)C[C@@H]1NC(=O)c2ccc(-c3ccc(N4CCN(C(=O)[C@H]5CCC[C@H]5C(=O)N5CCN(c6ccc(-c7ccc8cc7CNC(=O)[C@@H]7CCCN7[C@H](C(=O)NC(C)(C)C)[C@H](C)NC(=O)[C@H]([C@@H](C)O)NC(=O)[C@H](CC(=O)O)NC(=O)[C@H](CC(C)C)NC8=O)cc6)CC5)CC4)cc3)c(c2)CNC(=O)[C@@H]2CCCN2[C@H](C(=O)NC(C)(C)C)[C@H](C)NC(=O)[C@H]([C@@H](C)O)NC(=O)[C@H](CC(=O)O)NC1=O` [Compound 458]: the IC50 is 42 nM. For `CC(C)C[C@@H]1NC(=O)c2ccc(-c3ccc(N4CCN(C(=O)CCOCCOCCNC(=O)CCCCCC(=O)NCCOCCOCCC(=O)N5CCN(c6ccc(-c7ccc8cc7CNC(=O)[C@@H]7CCCN7[C@H](C(=O)NC(C)(C)C)[C@H](C)NC(=O)[C@H]([C@@H](C)O)NC(=O)[C@H](CC(=O)O)NC(=O)[C@H](CC(C)C)NC8=O)cc6)CC5)CC4)cc3)c(c2)CNC(=O)[C@@H]2CCCN2[C@H](C(=O)NC(C)(C)C)[C@H](C)NC(=O)[C@H]([C@@H](C)O)NC(=O)[C@H](CC(=O)O)NC1=O` [Compound 505], the IC50 was found to be 59 nM. `CC(C)C[C@@H]1NC(=O)c2ccc(-c3ccc(N4CCN(c5ncc([N+](=O)[O-])c(N6CCN(c7ccc(-c8ccc9cc8CNC(=O)[C@@H]8CCCN8[C@H](C(=O)NC(C)(C)C)[C@H](C)NC(=O)[C@H]([C@@H](C)O)NC(=O)[C@H](CC(=O)O)NC(=O)[C@H](CC(C)C)NC9=O)cc7)CC6)n5)CC4)cc3)c(c2)CNC(=O)[C@@H]2CCCN2[C@H](C(=O)NC(C)(C)C)[C@H](C)NC(=O)[C@H]([C@@H](C)O)NC(=O)[C@H](CC(=O)O)NC1=O` [Compound 468]: the IC50 worked out at 13 nM. Turning to `CC(C)C[C@@H]1NC(=O)c2ccc(-c3ccc(N4CCN(Cc5ccc(CN6CCN(c7ccc(-c8ccc9cc8CNC(=O)[C@@H]8CCCN8[C@H](C(=O)NC(C)(C)C)[C@H](C)NC(=O)[C@H]([C@@H](C)O)NC(=O)[C@H](CC(=O)O)NC(=O)[C@H](CC(C)C)NC9=O)cc7)CC6)cc5)CC4)cc3)c(c2)CNC(=O)[C@@H]2CCCN2[C@H](C(=O)NC(C)(C)C)[C@H](C)NC(=O)[C@H]([C@@H](C)O)NC(=O)[C@H](CC(=O)O)NC1=O` [Compound 500], the IC50 was 32 nM.

The same experiment, now with this note: RPMI8866 cells; read-out: IC50 in the RPMI8866 cell adhesion assay.
With `CC(C)C[C@@H]1NC(=O)c2ccc(-c3ccc(N4CCN(C(=O)c5ccccc5-c5ccccc5C(=O)N5CCN(c6ccc(-c7ccc8cc7CNC(=O)[C@@H]7CCCN7[C@H](C(=O)NC(C)(C)C)[C@H](C)NC(=O)[C@H]([C@@H](C)O)NC(=O)[C@H](CC(=O)O)NC(=O)[C@H](CC(C)C)NC8=O)cc6)CC5)CC4)cc3)c(c2)CNC(=O)[C@@H]2CCCN2[C@H](C(=O)NC(C)(C)C)[C@H](C)NC(=O)[C@H]([C@@H](C)O)NC(=O)[C@H](CC(=O)O)NC1=O` [Compound 517], the IC50 stood at 9.9 nM.
